The values below are quoted from earlier work in patent publication US7135615B2, “Chromosome doubling method” (The Curators of the University of Missouri, priority 2001, dated 2006).

This data set relates to parthenogenetically induced haploid maize (Zea mays L.) seedlings. The note with it: cited from earlier work.

SMILES strings stand for the structures.

Turning to `COc1cc2c(c(OC)c1OC)-c1ccc(OC)c(=O)cc1[C@@H](NC(C)=O)CC2` [colchicine], the haploid recovery rates (colchicine treatments of haploid maize seedlings, reported) is given as 26–41%. Under “colchicine treatments, affected by growing conditions”, the “recovery rates could drop as low as” value is 0.8–3.1%. The estimated selfing rate (previously used colchicine treatments) is 5–15%.
